Results: patent US6737383B1, “Herbicidal oxadiazolidines” (priority 1999, dated 2004)

How the values were obtained:
surinam grass = assay: Test B pre/postemergence surinam grass; format: in vivo, Brachiaria decumbens
Summary of the method: (§1)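 Test chemicals in a non-phytotoxic solvent mixture with surfactant were sprayed preemergence onto planted seeds and postemergence onto plants 2 to 18 cm tall (1- to 4-leaf stage). After twelve to sixteen days in a greenhouse, injury was visually rated against untreated controls from 0 (no effect) to 10 (complete control).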

cocklebur = assay: Test B pre/postemergence cocklebur; format: in vivo, Xanthium strumarium
Summary of the method: as §1

corn = assay: Test B pre/postemergence corn; format: in vivo, Zea mays
Summary of the method: as §1

crabgrass = assay: Test B pre/postemergence crabgrass; format: in vivo, Digitaria sanguinalis
Summary of the method: as §1

giant foxtail = assay: Test B pre/postemergence giant foxtail; format: in vivo, Setaria faberii
Summary of the method: as §1

morningglory = assay: Test B pre/postemergence morningglory; format: in vivo, Ipomoea hederacea
Summary of the method: as §1

pigweed = assay: Test B pre/postemergence pigweed; format: in vivo, Amaranthus retroflexus
Summary of the method: as §1

rape = assay: Test B pre/postemergence rape; format: in vivo, Brassica napus
Summary of the method: as §1

soybean = assay: Test B pre/postemergence soybean; format: in vivo, Glycine max
Summary of the method: as §1

sugar beet = assay: Test B pre/postemergence sugar beet; format: in vivo, Beta vulgaris
Summary of the method: as §1

wild oat = assay: Test B pre/postemergence wild oat; format: in vivo, Avena fatua
Summary of the method: as §1

purple nutsedge = assay: Test B pre/postemergence purple nutsedge; format: in vivo, Cyperus rotundus
Summary of the method: as §1

rice = assay: Test B flood test rice; format: in vivo, Oryza sativa
Summary of the method: (§2)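 Flood test on plants grown to the 2-leaf stage; treated plants kept in greenhouse twelve to sixteen days, then visually rated against controls on a 0 (no effect) to 10 (complete control) scale.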

smallflower flatsedge = assay: Test B flood test smallflower flatsedge; format: in vivo, Cyperus difformis
Summary of the method: as §2

duck salad = assay: Test B flood test duck salad; format: in vivo, Heteranthera limosa
Summary of the method: as §2

bamyardgrass = assay: Test B flood test barnyardgrass; format: in vivo, Echinochloa crus-galli
Summary of the method: as §2

[1] = Postemergence, Rate 62 g/ha, scale 0 to 10, 0 is no effect, 10 is complete control
[2] = Postemergence, Rate 125 g/ha, scale of 0 to 10 where 0 is no effect and 10 is complete control
[3] = Postemergence, Rate 250 g/ha, scale of 0 to 10, 0 is no effect, 10 is complete control
[4] = Postemergence, Rate 500 g/ha, scale of 0 to 10 where 0 is no effect and 10 is complete control
[5] = Preemergence, Rate 62 g/ha, scale 0 to 10 (0 no effect, 10 complete control)
[6] = Preemergence, Rate 125 g/ha, scale of 0 to 10 where 0 is no effect and 10 is complete control
[7] = Preemergence, Rate 500 g/ha, scale of 0 to 10 where 0 is no effect and 10 is complete control
[8] = Rate 62 g/ha, flood test species, Pre-emergence, visual evaluation after twelve to sixteen days
[9] = Rate 125 g/ha, under heading Pre-emergence, flood test species, visual evaluation after twelve to sixteen days
[10] = Rate 250 g/ha, Pre-emergence (flood test species), scale 0 to 10, 0 is no effect, 10 is complete control
[11] = Rate 500 g/ha, Pre-emergence section of Table B, 0 to 10 scale (0 no effect, 10 complete control)

## C#CC(C)n1c(=O)on(C(=O)N(c2ccccc2)C(C)C)c1=O (stereo not shown) [Compound 609]
Surinam grass; [1]
  Plant response rating, B. signalgrass: 0
Surinam grass; [2]
  Plant response rating, B. signalgrass: 1
Surinam grass; [3]
  B. signalgrass plant response rating: 5
Surinam grass; [4]
  Plant response rating, B. signalgrass: 8
Surinam grass; [5]
  B. signalgrass plant response rating: 3
Surinam grass; [6]
  B. signalgrass plant response rating: 6
Surinam grass; Preemergence, Rate 250 g/ha
  B. signalgrass plant response rating (0 to 10 scale, 0 is no effect, 10 is complete control): 9
Surinam grass; [7]
  B. signalgrass plant response rating: 10
cocklebur; [1]
  Plant response rating, Cocklebur: 0
cocklebur; [2]
  Plant response rating, Cocklebur: 1
cocklebur; [3]
  Cocklebur plant response rating: 2
cocklebur; [4]
  Plant response rating, Cocklebur: 3
cocklebur; [5]
  Cocklebur plant response rating: 0
cocklebur; [6]
  Cocklebur plant response rating: 0
cocklebur; Preemergence, Rate 250 g/ha
  Cocklebur plant response rating (0 to 10 scale): 0
cocklebur; [7]
  Plant response rating, Cocklebur: 3
corn; [1]
  Plant response rating, Corn: 0
corn; [2]
  Plant response rating, Corn: 0
corn; [3]
  Corn plant response rating: 2
corn; [4]
  Plant response rating, Corn: 7
corn; [5]
  Corn plant response rating: 2
corn; [6]
  Corn plant response rating: 2
corn; Preemergence, Rate 250 g/ha
  Corn plant response rating (0 to 10 scale): 6
corn; [7]
  Plant response rating, Corn: 9
crabgrass; [1]
  Plant response rating, Crabgrass: 5
crabgrass; [2]
  Plant response rating, Crabgrass: 9
crabgrass; [3]
  Crabgrass plant response rating: 9
crabgrass; [5]
  Crabgrass plant response rating: 7
crabgrass; [6]
  Crabgrass plant response rating: 7
crabgrass; [7]
  Plant response rating, Crabgrass: 9
Giant foxtail; [1]
  Plant response rating, Giant foxtail: 6
Giant foxtail; [2]
  Plant response rating, Giant foxtail: 9
Giant foxtail; [3]
  Giant foxtail plant response rating: 9
Giant foxtail; [4]
  Plant response rating, Giant foxtail: 9
Giant foxtail; [5]
  Giant foxtail plant response rating: 10
Giant foxtail; [6]
  Giant foxtail plant response rating: 10
Giant foxtail; [7]
  Plant response rating, Giant foxtail: 10
morningglory; [1]
  Plant response rating, Morningglory: 8
morningglory; [2]
  Plant response rating, Morningglory: 10
morningglory; [3]
  Morningglory plant response rating: 10
morningglory; [4]
  Plant response rating, Morningglory: 10
morningglory; [5]
  Morningglory plant response rating: 0
morningglory; [6]
  Morningglory plant response rating: 0
morningglory; [7]
  Plant response rating, Morningglory: 5
pigweed; [1]
  Plant response rating, Redroot pigweed: 0
pigweed; [2]
  Plant response rating, Redroot pigweed: 0
pigweed; [3]
  Redroot pigweed plant response rating: 2
pigweed; [4]
  Plant response rating, Redroot pigweed: 9
pigweed; [5]
  Redroot pigweed plant response rating: 8
pigweed; [7]
  Plant response rating, Redroot pigweed: 10
rape; [1]
  Plant response rating, Rape: 0
rape; [2]
  Plant response rating, Rape: 0
rape; [3]
  Rape plant response rating: 1
rape; [4]
  Plant response rating, Rape: 3
rape; [5]
  Rape plant response rating: 0
rape; [6]
  Rape plant response rating: 0
rape; [7]
  Plant response rating, Rape: 10
soybean; [1]
  Plant response rating, Soybean: 5
soybean; [2]
  Plant response rating, Soybean: 6
soybean; [4]
  Plant response rating, Soybean: 7
soybean; [5]
  Soybean plant response rating: 4
soybean; [6]
  Soybean plant response rating: 6
soybean; [7]
  Plant response rating, Soybean: 7
Sugar beet; [1]
  Plant response rating, Sugarbeets: 0
Sugar beet; [2]
  Plant response rating, Sugarbeets: 0
Sugar beet; [3]
  Sugarbeets plant response rating: 0
Sugar beet; [4]
  Plant response rating, Sugarbeets: 1
Sugar beet; [5]
  Sugarbeets plant response rating: 0
Sugar beet; [6]
  Sugarbeets plant response rating: 3
Sugar beet; [7]
  Plant response rating, Sugarbeets: 8
Wild oat; [1]
  Plant response rating, Wild oats: 0
Wild oat; [2]
  Plant response rating, Wild oats: 0
Wild oat; [3]
  Wild oats plant response rating: 0
Wild oat; [4]
  Plant response rating, Wild oats: 4
Wild oat; [5]
  Wild oats plant response rating: 3
Wild oat; [6]
  Wild oats plant response rating: 7
Wild oat; [7]
  Plant response rating, Wild oats: 10
Purple nutsedge; [1]
  Plant response rating, Nutsedge: 0
Purple nutsedge; [2]
  Plant response rating, Nutsedge: 0
Purple nutsedge; [3]
  Nutsedge plant response rating: 0
Purple nutsedge; [4]
  Plant response rating, Nutsedge: 6
Purple nutsedge; [5]
  Nutsedge plant response rating: 0
Purple nutsedge; [6]
  Nutsedge plant response rating: 0
Purple nutsedge; [7]
  Plant response rating, Nutsedge: 4
rice; [8]
  Plant response rating, Rice (0 to 10 scale, 0 is no effect, 10 is complete control): 0
rice; [9]
  Rice plant response rating (0 to 10 scale, 0 is no effect, 10 is complete control): 0
rice; [10]
  Rice plant response rating: 0
rice; [11]
  Rice plant response rating: 0
Smallflower flatsedge; [8]
  Plant response rating, S. Flatsedge (0 to 10 scale, 0 is no effect, 10 is complete control): 0
Smallflower flatsedge; [9]
  S. Flatsedge plant response rating (0 to 10 scale, 0 is no effect, 10 is complete control): 0
Smallflower flatsedge; [10]
  S. Flatsedge plant response rating: 0
Smallflower flatsedge; [11]
  S. Flatsedge plant response rating: 0
Duck salad; [8]
  Plant response rating, Ducksalad (0 to 10 scale, 0 is no effect, 10 is complete control): 0
Duck salad; [9]
  Ducksalad plant response rating (0 to 10 scale, 0 is no effect, 10 is complete control): 0
Duck salad; [10]
  Ducksalad plant response rating: 0
Duck salad; [11]
  Ducksalad plant response rating: 0
bamyardgrass; [8]
  Plant response rating, Barnyardgrass (0 to 10 scale, 0 is no effect, 10 is complete control): 0
bamyardgrass; [9]
  Barnyardgrass plant response rating (0 to 10 scale, 0 is no effect, 10 is complete control): 0
bamyardgrass; [10]
  Barnyardgrass plant response rating: 0
bamyardgrass; [11]
  Barnyardgrass plant response rating: 0
